The values below come from article PMC7284125, “Identification of annotated bioactive molecules that impair motility of the blood fluke Schistosoma mansoni” (International Journal for Parasitology: Drugs and Drug …, 2020).

Where two headings read alike, the source gives them in different places.

Assay [1] concerns S. mansoni schistosomulae. Kind of assay: Phenotypic primary screen assay on schistosomulae (phenotype; viability by methylene blue dye exclusion). The note with it: Schistosoma mansoni; three-day-old schistosomulae, 10 μM, 24 h; calculated 5 days post compound exposure; read-out: Viability (%). The class given is cell-based.
For assay [2], the system named is S. mansoni schistosomulae. The experiment in a line: Motility assay on schistosomulae (pixel displacement, relative to DMSO control). The note with it: for activity at 1 µM: Schistosoma mansoni, read-out: Fractional motility. The class given is cell-based, Schistosoma mansoni. The procedure, abridged:
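Mechanically transformed S. mansoni schistosomulae (200/well) in Opti-MEM with 5% dialyzed FBS were exposed to compounds at 1 and 10 μM for 24 h at 37 °C, 5% CO2. Motility filmed at 10 frames/s for 1 min and quantified by pixel displacement relative to DMSO-treated controls.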

Assay [3] relates to S. mansoni schistosomulae. Kind of assay: Phenotypic primary screen assay on schistosomulae (phenotype; viability by methylene blue dye exclusion). The assay is classed as cell-based, Schistosoma mansoni. The note with it: three-day-old schistosomulae, 10 μM, 24 h; estimated 5 days post compound exposure. The procedure, abridged:
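Parasites lacking contraction/relaxation cycles and showing dark internal granulations counted as dead. Movement and body shape were compared with DMSO-treated controls under a stereo microscope at 24 h and at five days of exposure. Larvae came from infected snails shed under light for 2 h at 32 °C.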

The test system of the next assay is S. mansoni adult worms. The experiment in a line: Motility assay on adult parasites (pixel displacement, relative to DMSO control). The class given is cell-based, Schistosoma mansoni. The note with it: 10 μM; for Fractional motility: secondary screen. In short, it runs like this: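 Unpaired adult worms from mice 6 weeks post-infection kept in OPTI-MEM with 5% dialyzed FBS and exposed to compounds at 1 and 10 μM for 24 h. Motility filmed 1 min at 10 frames/s, quantified by pixel displacement versus DMSO-treated worms; recovery followed up to five days after washout.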

[4] abbreviates: 120 h, schistosomulae, secondary screen, 24h exposure, read at D5, 1 µM.
Where [5] appears, read: schistosomulae, secondary screen, 24h exposure, read at D1, 1 µM.
The mark [6] stands for this setting: schistosomulae, secondary screen, 24h exposure, read at D1, 10 µM.
[7] abbreviates: schistosomulae, secondary screen, 24h exposure, read at D5, 10 µM.

Turning to `Cc1cc(Nc2ncc(Cl)c(Nc3ccccc3S(=O)(=O)C(C)C)n2)c(OC(C)C)cc1C1CCNCC1` [LDK378], in assay [1], the viability – broadly, the share of living cells, or the viability signal relative to a control – at 10 µM was 0%. Besides, the activity at 1 µM amounted to 120% in assay [2] (setting [4]) and 7% in assay [2] (setting [5]). The Fractional motility was -0.83 in assay [2] (setting [6]); -0.96 in assay [2] (setting [7]); -0.38 with S. mansoni adult worms (D1, Female adult worms); -0.0381 in the assay on S. mansoni adult worms (D1, Male adult worms); -0.63 with S. mansoni adult worms (D5, Female adult worms); -0.31 in the assay on S. mansoni adult worms (D5, Male adult worms). Also, the Phenotype result in assay [3] is “dark, granulated”. In the assay with S. mansoni adult worms (adults, long-term after washout), the “motility phenotype in words” value was “Significant hypomotility”.

Turning to `CCOC(=O)C1=C(C)NC(C)=C(C(=O)OCC)C1c1ccccc1/C=C/C(=O)OC(C)(C)C` [Lacidipine], the viability at 10 µM in assay [1] was 99%. The values for the activity at 1 µM in assay [2] (setting [4]) and in assay [2] (setting [5]) were -11% and 99%, respectively. Further, the Fractional motility in assay [2] (setting [6]) is 3.79; in assay [2] (setting [7]) it was 0.28; in the assay with S. mansoni adult worms (D1, Female adult worms) it was -0.73; in the assay on S. mansoni adult worms (D1, Male adult worms) it was -0.50; with S. mansoni adult worms (D5, Female adult worms) it was -0.82; in the assay on S. mansoni adult worms (D5, Male adult worms), -0.53. Besides, the Phenotype result in assay [3] was “granulated”.

On to `Cc1cccc(C(C)c2cnc[nH]2)c1C` (centres unmarked) [Medetomidine], for which the viability at 10 µM in assay [1] was 100%. Also, the activity at 1 µM is 10% in assay [2] (setting [4]) and -39% in assay [2] (setting [5]). In addition, the Fractional motility is -0.24 in assay [2] (setting [6]); 0.20 in assay [2] (setting [7]); 1.05 in the assay with S. mansoni adult worms (D1, Female adult worms); 2.75 in the assay with S. mansoni adult worms (D1, Male adult worms); -0.85 in the assay on S. mansoni adult worms (D5, Female adult worms); 0.31 in the assay with S. mansoni adult worms (D5, Male adult worms). Moreover, in assay [3], the Phenotype entry is reported as “elongated”.

As to `NCC(=O)Nc1ccc(-n2nc(C(F)(F)F)cc2-c2ccc3c(ccc4ccccc43)c2)cc1` [OSU-03012], the viability at 10 µM in assay [1] was 1%. Also, the activity at 1 µM in assay [2] (setting [4]) and in assay [2] (setting [5]) was 26% throughout. Further, the Fractional motility is on record as -1.00 in assay [2] (setting [6]); -0.72 in assay [2] (setting [7]); 0.79 with S. mansoni adult worms (D1, Female adult worms); 1.37 with S. mansoni adult worms (D1, Male adult worms); -0.15 in the assay with S. mansoni adult worms (D5, Female adult worms); 0.62 in the assay on S. mansoni adult worms (D5, Male adult worms). For the same compound, the Phenotype result in assay [3] is on record as “big, granulated”.

For the compound `CCCCCCCCOc1ccccc1C(=O)Nc1ccc(C(=O)OCC[N+](C)(CC)CC)cc1` [Otilonium], the viability at 10 µM in assay [1] is 98.5%. The activity at 1 µM was 31% in assay [2] (setting [4]) and -72% in assay [2] (setting [5]). Besides, the Fractional motility in assay [2] (setting [6]) is reported as 0.56; in assay [2] (setting [7]), -0.13; in the assay on S. mansoni adult worms (D1, Female adult worms), 0.10; in the assay with S. mansoni adult worms (D1, Male adult worms) it was 0.16; with S. mansoni adult worms (D5, Female adult worms) it was -0.67; in the assay with S. mansoni adult worms (D5, Male adult worms), -0.65. For the same compound, in assay [3], the Phenotype result was “blebbing”.

For the compound `CCCN1C[C@H](CSC)C[C@@H]2c3cccc4[nH]cc(c34)C[C@H]21` [Pergolide], the viability at 10 µM in assay [1] is 99%. The activity at 1 µM is -25% in assay [2] (setting [4]) and 139% in assay [2] (setting [5]). The Fractional motility in assay [2] (setting [6]) was 18.64; in assay [2] (setting [7]) it was -0.34; with S. mansoni adult worms (D1, Female adult worms), 0.25; in the assay with S. mansoni adult worms (D1, Male adult worms) it was 2.14; with S. mansoni adult worms (D5, Female adult worms), -0.82; in the assay with S. mansoni adult worms (D5, Male adult worms), -0.30. Also, the Phenotype entry in assay [3] is listed as “big, round”.

As to `COCCCN1CCC(NC(=O)c2cc(Cl)c(N)c3c2OCC3)CC1` [Prucalopride], in assay [1], the viability at 10 µM is 96%. In addition, the activity at 1 µM was -11% in assay [2] (setting [4]) and 121% in assay [2] (setting [5]). Moreover, the Fractional motility is given as 6.36 in assay [2] (setting [6]); -0.28 in assay [2] (setting [7]); -0.26 with S. mansoni adult worms (D1, Female adult worms); 0.72 with S. mansoni adult worms (D1, Male adult worms); -0.27 in the assay on S. mansoni adult worms (D5, Female adult worms); 0.34 in the assay with S. mansoni adult worms (D5, Male adult worms). Besides, the Phenotype entry in assay [3] was “elongated”.

`CC(C)(C)c1cc(NC(=O)Nc2ccc(-c3cn4c(n3)sc3cc(OCCN5CCOCC5)ccc34)cc2)no1` [Quizartinib]: the viability at 10 µM in assay [1] is 54%. The activity at 1 µM in assay [2] (setting [4]) was -2.37%. Moreover, the Fractional motility is given as -0.36 in assay [2] (setting [7]); 0.64 in the assay on S. mansoni adult worms (D1, Female adult worms); 4.64 with S. mansoni adult worms (D1, Male adult worms); -0.59 with S. mansoni adult worms (D5, Female adult worms); -0.09 in the assay on S. mansoni adult worms (D5, Male adult worms). Also, in assay [3], the Phenotype entry is on record as “granulated”.

Turning to `Cc1c(C(=O)NN2CCCCC2)nn(-c2ccc(Cl)cc2Cl)c1-c1ccc(Cl)cc1` [Rimonabant], the viability at 10 µM in assay [1] is 98.5%. Also, the activity at 1 µM in assay [2] (setting [4]) was -21%; in assay [2] (setting [5]), 433%. For the same compound, the Fractional motility in assay [2] (setting [6]) is 12.27; in assay [2] (setting [7]), 4.07; with S. mansoni adult worms (D1, Female adult worms) it was -0.30; in the assay with S. mansoni adult worms (D1, Male adult worms) it was 0.0659; in the assay on S. mansoni adult worms (D5, Female adult worms), -0.41; in the assay on S. mansoni adult worms (D5, Male adult worms), -0.55. In addition, in assay [3], the Phenotype entry is on record as “abnormal morphology, granulated”.

As for `Cc1ccc(C(=O)N(CCCN)[C@@H](c2oc3cc(Cl)ccc3c(=O)c2Cc2ccccc2)C(C)C)cc1` [SB743921], in assay [1], the viability at 10 µM is 70%. For the same compound, the results for the activity at 1 µM in assay [2] (setting [4]) and in assay [2] (setting [5]) were 17% and 74%, respectively. Further, the Fractional motility is given as 1.32 in assay [2] (setting [6]); -0.89 in assay [2] (setting [7]); 1.14 in the assay on S. mansoni adult worms (D1, Female adult worms); 1.48 with S. mansoni adult worms (D1, Male adult worms); -0.87 in the assay on S. mansoni adult worms (D5, Female adult worms); 0.0641 in the assay with S. mansoni adult worms (D5, Male adult worms). Further, in assay [3], the Phenotype result was “big, dark”.

Consider `CN1CCC(CNc2ccc3ncc(-c4cccc(OC(F)(F)F)c4)n3n2)CC1` [SGI-1776], for which the viability at 10 µM in assay [1] was 92.5%. Moreover, in assay [2] (120 h, Selleckchem customized library secondary screen, 24h, D5, 1 µM), the activity at 1 µM amounted to 35%. Besides, the Fractional motility in assay [2] (Selleckchem customized library secondary screen, 24h, D1, 10 µM) stood at 121.95; in assay [2] (Selleckchem customized library secondary screen, 24h, D5, 10 µM) it was 114.81; in the assay on S. mansoni adult worms (D1, Female adult worms), 3.98; in the assay on S. mansoni adult worms (D1, Male adult worms) it was 9.87; with S. mansoni adult worms (D5, Female adult worms) it was 0.50; in the assay with S. mansoni adult worms (D5, Male adult worms), 0.36. Moreover, the “stimulated motility relative to control” value in assay [2] (schistosomulae, throughout the course of the experiment) is given as above 100 fold. Also, the Phenotype result in assay [3] is on record as “dark”.

In the case of `O=C(O[C@H]1CN2CCC1CC2)N1CCc2ccccc2[C@@H]1c1ccccc1` [Solifenacin], in assay [1], the viability at 10 µM was 96.5%. For the same compound, the activity at 1 µM in assay [2] (24 h) was -30%; in assay [2] (120 h), -59%. Moreover, the Fractional motility in assay [2] (setting [6]) is listed as 1.46; in assay [2] (setting [7]) it was 0.44; with S. mansoni adult worms (D1, Female adult worms), 1.59; in the assay on S. mansoni adult worms (D1, Male adult worms), 2.65; in the assay on S. mansoni adult worms (D5, Female adult worms) it was -0.55; in the assay on S. mansoni adult worms (D5, Male adult worms), 0.28. For the same compound, in assay [3], the Phenotype result is given as “elongated, granulated, blebbing”.
